We go through 10 molecules from US9938260B2, “Soluble guanylate cyclase activators and their use” (GlaxoSmithKline Intellectual Property Development Limited, priority 2014, dated 2018).

Where a name gives a salt, the structure may show the parent alone.

The target in this assay is T1, soluble guanylate cyclase (sGC) (Rattus norvegicus, UniProt P20595).
T1 construct: endogenous in cells; host or cells: primary rat aortic smooth muscle cells
T1 sequence (P20595 1-619): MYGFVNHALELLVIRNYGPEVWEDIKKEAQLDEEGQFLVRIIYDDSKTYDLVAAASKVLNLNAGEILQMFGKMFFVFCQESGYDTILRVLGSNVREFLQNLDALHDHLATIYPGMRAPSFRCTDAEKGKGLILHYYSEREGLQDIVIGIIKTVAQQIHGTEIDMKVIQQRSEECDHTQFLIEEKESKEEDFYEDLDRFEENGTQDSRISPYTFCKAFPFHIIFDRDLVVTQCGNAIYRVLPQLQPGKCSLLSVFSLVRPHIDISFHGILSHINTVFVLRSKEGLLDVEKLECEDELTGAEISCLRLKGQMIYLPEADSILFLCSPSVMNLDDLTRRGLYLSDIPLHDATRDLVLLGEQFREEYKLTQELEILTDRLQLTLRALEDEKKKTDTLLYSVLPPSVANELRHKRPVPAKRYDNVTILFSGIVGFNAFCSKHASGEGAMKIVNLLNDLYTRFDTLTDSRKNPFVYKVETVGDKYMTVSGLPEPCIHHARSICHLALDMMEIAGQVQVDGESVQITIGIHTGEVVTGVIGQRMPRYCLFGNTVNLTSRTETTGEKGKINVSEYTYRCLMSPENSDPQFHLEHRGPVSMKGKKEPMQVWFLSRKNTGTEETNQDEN
T1 sequence (P19686 1-690 partner): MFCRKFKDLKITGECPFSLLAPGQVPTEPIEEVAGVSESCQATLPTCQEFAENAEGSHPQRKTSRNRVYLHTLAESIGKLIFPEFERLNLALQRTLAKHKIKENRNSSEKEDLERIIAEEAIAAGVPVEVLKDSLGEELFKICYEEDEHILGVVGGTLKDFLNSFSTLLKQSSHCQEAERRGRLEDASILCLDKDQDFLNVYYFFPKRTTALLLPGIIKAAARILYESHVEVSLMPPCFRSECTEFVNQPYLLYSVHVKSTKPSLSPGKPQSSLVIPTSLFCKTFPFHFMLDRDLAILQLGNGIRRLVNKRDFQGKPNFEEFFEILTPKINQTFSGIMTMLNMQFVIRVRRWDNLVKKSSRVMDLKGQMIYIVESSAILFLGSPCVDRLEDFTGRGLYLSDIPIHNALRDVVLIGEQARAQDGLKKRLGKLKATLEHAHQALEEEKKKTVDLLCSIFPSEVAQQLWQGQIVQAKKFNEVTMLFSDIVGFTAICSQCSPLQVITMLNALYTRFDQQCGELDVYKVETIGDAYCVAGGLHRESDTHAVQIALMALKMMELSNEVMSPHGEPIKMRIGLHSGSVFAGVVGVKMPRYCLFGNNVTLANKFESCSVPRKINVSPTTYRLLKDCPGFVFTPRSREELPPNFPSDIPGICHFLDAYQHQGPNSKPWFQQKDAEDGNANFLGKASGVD
As to the kind of experiment: Biological cellular assay: sGC activity by phosphorylation of VASP in rat aortic smooth muscle cells. Format: cell-based. The note with it: primary rat aortic smooth muscle cells, pre-incubated with 10 μM ODQ, 30 min at 37° C., phospho-VASP (pSer239) fluorescent signal; read-out: Cell assay pEC50 (converted). As for the experimental part:
The activity of soluble guanylate cyclase (sGC) was tested in an assay based on measuring phosphorylation of the protein kinase G (PKG) substrate vasodilator-stimulated phosphoprotein (VASP) in rat aortic smooth muscle cells. […] Dimethylsulfoxide (DMSO) vehicle and varying concentrations of the compound to be tested were then added. Following a 30 min incubation at 37° C., media was aspirated and the cells were rinsed with phosphate-buffered saline (PBS) and fixed with 4% formaldehyde in PBS by incubating at room temperature for 20 min. Cells were then washed with PBS and permeabilized for 10 min using 0.1% triton X-100 in PBS. Following PBS rinsing, the cells were blocked for 90 min at room temperature with blocking buffer. The buffer was aspirated and the cells were treated overnight at 4° C. with primary antibody (pSer239-VASP, rabbit polyclonal Ab) diluted 1:500 in blocking buffer. Following three washes with 0.05% Tween 20, the cells were treated for 1 h at room temperature with a fluorescent labeled secondary antibody (IRDye® 800CW Donkey Anti-Rabbit IgG) diluted 1:2500 in blocking buffer with 0.05% Tween 20. Following two washes with PBS, infrared fluorescence was measured using an Odyssey Infrared Imaging System. The activity of a test compound was determined as the pEC50 value which is the concentration able to increase by 50% (vs. Bmax) the phospho-VASP fluorescent signal. Front. Pharmacol., 5 Jul. 2012|doi: 10.3389/fphar.2012.00128, Volume 3 July, 2012, Article number 128.

On to `Cc1nc(C2CCN(CC(F)(F)F)CC2)ccc1COc1c(F)cc(F)cc1-c1cccc(N2CCC(C(=O)O)CC2)n1` [Example 14, 1-(6-(3,5-difluoro-2-((2-methyl-6-(1-(2,2,2-trifluoroethyl)piperidin-4-yl)pyridin-3-yl)methoxy)phenyl)pyridin-2-yl)piperidine-4-carboxylic acid], for which the EC50 was 0.01 µM.
With `Cc1cc(C2CCN(C3COC3)CC2)ccc1COc1c(Cl)cccc1-c1cccc(N2CCC(C(=O)O)CC2)n1` [Example 36, 1-(6-(3-chloro-2-((2-methyl-4-(1-(oxetan-3-yl)piperidin-4-yl)benzyl)oxy)phenyl)pyridin-2-yl)piperidine-4-carboxylic acid, Sodium salt], the EC50 was 0.01 µM.
With `Cc1nc(C2CCN(C(=O)C3COC3)CC2)ccc1COc1c(F)cc(F)cc1-c1cccc(N2CCC(C(=O)O)CC2)n1` [Example 30, 1-(6-(3,5-difluoro-2-((2-methyl-6-(1-(oxetane-3-carbonyl)piperidin-4-yl)pyridin-3-yl)methoxy)phenyl)pyridin-2-yl)piperidine-4-carboxylic acid, Sodium salt,] the figure was 0.02 µM.
With `Cc1nc(C2CCN(CC#N)CC2)ccc1COc1c(F)cc(F)cc1-c1cccc(N2CCC(C(=O)O)CC2)n1` [Example 27, 1-(6-(2-((6-(1-(cyanomethyl)piperidin-4-yl)-2-methylpyridin-3-yl)methoxy)-3,5-difluorophenyl)pyridin-2-yl)piperidine-4-carboxylic acid, Sodium salt] the figure was 0.0398 µM; with `COc1cc(C2CCN(CC(F)(F)F)CC2)ccc1COc1c(F)cc(F)cc1-c1cccc(N2CCC(C(=O)O)CC2)n1` [Example 87, 1-(6-(3,5-difluoro-2-((2-methoxy-4-(1-(2,2,2-trifluoroethyl)piperidin-4-yl)benzyl)oxy)phenyl)pyridin-2-yl)piperidine-4-carboxylic acid, Sodium salt], 0.00251 µM.
Next, `Cc1cc(C2CCN(C(=O)Cn3cncn3)CC2)ccc1COc1c(F)cc(F)cc1-c1cccc(N2CCC(C(=O)O)CC2)n1` [Example 84, 1-(6-(2-((4-(1-(2-(1H-1,2,4-triazol-1-yl)acetyl)piperidin-4-yl)-2-methylbenzyl)oxy)-3,5-difluorophenyl)pyridin-2-yl)piperidine-4-carboxylic acid, Sodium salt]: 0.02 µM.
For the molecule `Cc1cc(OC2CCN(CC(F)(F)F)CC2)ccc1COc1c(F)cc(F)cc1-c1cccc(N2CCC(C(=O)O)CC2)n1` [Example 93, 1-(6-(3,5-difluoro-2-((2-methyl-4-((1-(2,2,2-trifluoroethyl)piperidin-4-yl)oxy)benzyl)oxy)phenyl)pyridin-2-yl)piperidine-4-carboxylic acid, Sodium salt], the EC50 was 0.00794 µM.
Next, `CCOC(=O)C1CCN(c2cccc(-c3cc(F)cc(F)c3OCc3ccc(C4CCN(CC#N)CC4)cc3C)n2)CC1` [Example 1, ethyl 1-(6-(2-((4-(1-(cyanomethyl)piperidin-4-yl)-2-methylbenzyl)oxy)-3,5-difluorophenyl)pyridin-2-yl)piperidine-4-carboxylate]: 0.000631 µM.
Next, `Cc1cc(C2CCN(CC(F)(F)F)CC2)ncc1COc1c(F)cc(F)cc1-c1cccc(N2CCC(C(=O)O)CC2)n1` [Example 9, 1-(6-(3,5-difluoro-2-((4-methyl-6-(1-(2,2,2-trifluoroethyl)piperidin-4-yl)pyridin-3-yl)methoxy)phenyl)pyridin-2-yl)piperidine-4-carboxylic acid, sodium salt]: 0.01 µM; `Cc1nc(C2CCN(C3COC3)CC2)ccc1COc1c(F)cc(F)cc1-c1cccc(N2CCC(C(=O)O)CC2)n1` [Example 17, 1-(6-(3,5-difluoro-2-((2-methyl-6-(1-(oxetan-3-yl)piperidin-4-yl)pyridin-3-yl)methoxy)phenyl)pyridin-2-yl)piperidine-4-carboxylic acid]: 0.0794 µM.
